According to patent US20150175530A1, “ANTIBACTERIAL AGENTS” (priority 2012, published 2015):
In brackets after ≈: the same amount, converted by molar mass. Where two headings read alike, the source gives them in different places.

What was measured:
[1] = tested on: bacterial isolates (clinical isolates and ATCC quality control strains); experiment: Minimum Inhibitory Concentrations (MICs) by broth microdilution (CLSI susceptibility testing); format: cell-based
Procedure: Bacterial isolates were cultivated from −70° C. frozen stocks by overnight passages at 35° C. in ambient air on Mueller-Hinton agar (Beckton Dickinson, Franklin Lakes, N.J.). Clinical isolates tested were obtained from various geographically diverse hospitals in the US and abroad (Focus Diagnostics, Herndon, Va. and JMI, North Liberty, Iowa). Quality control strains were from the American Type Culture Collection (ATCC; Rockville, Md.).
Minimum Inhibitory Concentrations (MICs) were determined by the broth microdilution method in accordance with the Clinical and Laboratory Standards Institute (CLSI) guidelines. In brief, organism suspensions were adjusted to a 0.5 McFarland standard to yield a final inoculum between 3×10^5 and 7×10^5 colony-forming units (CFU)/mL. Drug dilutions and inocula were made in sterile, cation adjusted Mueller-Hinton Broth (Beckton Dickinson). An inoculum volume of 100 μL was added to wells containing 100 μL of broth with 2-fold serial dilutions of drug. All inoculated microdilution trays were incubated in ambient air at 35° C. for 18-24 h. Following incubation, the lowest concentration of the drug that prevented visible growth (OD600 nm<0.05) was recorded as the MIC. Performance of the assay was monitored by the use of laboratory quality-control strains and levofloxacin, a compound with a defined MIC spectrum, in accordance with CLSI guidelines.

[2] = tested on: 3 P. aeruginosa strains (APAE001, APAE002, APAE006); experiment: Protein binding: fold change in MIC in the presence of 2% HSA and 0.05% AGP, Geomean of 3 strains; format: cell-based, Pseudomonas aeruginosa; conditions: MIC in the presence of 2% HSA and 0.05% AGP divided by MIC in the absence; Geomean of 3 P. aeruginosa strains (APAE001, APAE002, APAE006)
Procedure: The effect of human serum albumin (HSA) and α-1-acid glycoprotein (AGP) from human plasma, which are known to nonspecifically bind to certain antibiotics and thereby reduce their activity (Banéres-Roquet et al. 2009 “Use of a Surface Plasmon Resonance Method to Investigate Antibiotic and Plasma Protein Interactions” Antimicrob. Agents and Chemother. 53(4):1528-1531), was assessed against 3 P. aeruginosa strains (APAE001, APAE002, APAE006). APAE001 is Pseudomonas aeruginosa ATCC27853; APAE002 is a wildtype lab strain of Pseudomonas aeruginosa known as PAM1020 or PA01. APAE006 is a strain of […]/PA01 with efflux deletions: delta mexAB-oprM::CM delta CD-oprJ::Gm delta mexEF-oprN::omega Hg. Lomovskaya, 0 et al. 1999. Use of a Genetic Approach To Evaluate the Consequences of Inhibition of Efflux Pumps in P aeruginosa. Antimicrob. Agents Chemother. 43: 1340-1346.
The standard procedure described in Susceptibility Testing was utilized with one adjustment, specifically 2% HSA and 0.05% AGP were added to the cation adjusted Mueller-Hinton Broth. The MIC for each strain of interest was then assessed in the presence and absence of HSA/AGP. Following MIC determination, the fold change in MIC was determined for each individual strain by dividing the MIC in the presence of HSA/AGP by the MIC in the absence of HSA/AGP. The protein binding Geomean was then calculated using these 3 values.

[3] = APAE1096 is a clinical isolate, broth microdilution, read-out: Minimum Inhibitory Concentrations (MICs) APAE1096
[4] = Pseudomonas aeruginosa, APAE002 is a wildtype lab strain of Pseudomonas aeruginosa known as PAM1020 or PA01, broth microdilution, read-out: Minimum Inhibitory Concentrations (MICs) APAE002
[5] = Pseudomonas aeruginosa, ATCC27853, APAE001 is Pseudomonas aeruginosa ATCC27853, broth microdilution, read-out: Minimum Inhibitory Concentrations (MICs) APAE001
[6] = Pseudomonas aeruginosa, ATCC27853, read-out: Minimum Inhibitory Concentrations (MICs) APAE001
[7] = Pseudomonas aeruginosa, read-out: Minimum Inhibitory Concentrations (MICs) APAE002
[8] = read-out: Minimum Inhibitory Concentrations (MICs) APAE1096

Structure (SMILES)	MIC [1, 3] [µg/mL]	MIC [1, 4] [µg/mL]	MIC [1, 5] [µg/mL]	Protein Binding PB (Geomean of fold change in MIC) [2]	MIC [1, 6] [µg/mL]	MIC [1, 7] [µg/mL]	MIC [1, 8] [µg/mL]
CC(C)(N)[C@H](NC(=O)c1ccc(C#C/C=C/CO)cc1)C(=O)NO [Compound 3, (S,E)-N-(3-amino-1-(hydroxyamino)-3-methyl-1-oxobutan-2-yl)-4-(5-hydroxypent-3-en-1-ynyl)benzamide]	1 to 8 (≈ 3.02 to 24.1 µM)	< 1	< 1	1.3			
CNC(C)(C)[C@H](NC(=O)c1ccc(C#CC#CCO)cc1)C(=O)NO [Compound 5, (S)—N-(1-(hydroxyamino)-3-methyl-3-(methylamino)-1-oxobutan-2-yl)-4-(5-hydroxypenta-1,3-diynyl)benzamide]	< 1	< 1	< 1	1.6			
CC(C)(NCCO)[C@H](NC(=O)c1ccc(C#CC#CCO)cc1)C(=O)NO [Compound 6, (S)—N-(1-(hydroxyamino)-3-(2-hydroxyethylamino)-3-methyl-1-oxobutan-2-yl)-4-(5-hydroxypenta-1,3-diynyl)benzamide]	1 to 8 (≈ 2.68 to 21.4 µM)	< 1	< 1	2.6			
CC(C)(N)[C@H](NC(=O)c1ccc(C#CC#CCCO)cc1)C(=O)NO [Compound 7, (S)—N-(3-amino-1-(hydroxyamino)-3-methyl-1-oxobutan-2-yl)-4-(6-hydroxyhexa-1,3-diynyl)benzamide]	< 1	< 1	< 1	2.5			
CC(C)(N)[C@H](NC(=O)c1ccc(C#CCCO)cc1)C(=O)NO [Compound 8, (S)—N-(3-amino-1-(hydroxyamino)-3-methyl-1-oxobutan-2-yl)-4-(4-hydroxybut-1-ynyl)benzamide]	8 to 16 (≈ 25.1 to 50.1 µM)	1 to 8 (≈ 3.13 to 25.1 µM)	1 to 8 (≈ 3.13 to 25.1 µM)	0.9			
CNC(C)(C)[C@H](NC(=O)c1ccc(C#CC#CCCO)cc1)C(=O)NO [Compound 9, (S)—N-(1-(hydroxyamino)-3-methyl-3-(methylamino)-1-oxobutan-2-yl)-4-(6-hydroxyhexa-1,3-diynyl)benzamide]				1.5	< 1	< 1	< 1
CCNC(C)(C)[C@H](NC(=O)c1ccc(C#CC#CCCO)cc1)C(=O)NO [Compound 10, (S)—N-(3-(ethylamino)-1-(hydroxyamino)-3-methyl-1-oxobutan-2-yl)-4-(6-hydroxyhexa-1,3-diynyl)benzamide]				2.2	< 1	< 1	< 1
CC(C)(NCCO)[C@H](NC(=O)c1ccc(C#CC#CCCO)cc1)C(=O)NO [Compound 11, (S)—N-(1-(hydroxyamino)-3-(2-hydroxyethylamino)-3-methyl-1-oxobutan-2-yl)-4-(6-hydroxyhexa-1,3-diynyl)benzamide]	1 to 8 (≈ 2.58 to 20.6 µM)	< 1	< 1	1.5			
Cc1cc(CNC(C)(C)[C@H](NC(=O)c2ccc(C#CC#CCCO)cc2)C(=O)NO)no1 [Compound 12, (S)—N-(1-(hydroxyamino)-3-methyl-3-((5-methylisoxazol-3-yl)methylamino)-1-oxobutan-2-yl)-4-(6-hydroxyhexa-1,3-diynyl)benzamide]	8 to 16 (≈ 18.2 to 36.5 µM)	1 to 8 (≈ 2.28 to 18.2 µM)	1 to 8 (≈ 2.28 to 18.2 µM)	2.9			
CC(C)(NCc1c[nH]cn1)[C@H](NC(=O)c1ccc(C#CC#CCCO)cc1)C(=O)NO [Compound 13, (S)—N-(3-((1H-imidazol-4-yl)methylamino)-1-(hydroxyamino)-3-methyl-1-oxobutan-2-yl)-4-(6-hydroxyhexa-1,3-diynyl)benzamide]	1 to 8 (≈ 2.36 to 18.9 µM)	1 to 8 (≈ 2.36 to 18.9 µM)	< 1	1.4			
C[C@H](O)C#CC#Cc1ccc(C(=O)N[C@H](C(=O)NO)C(C)(C)N)cc1 [Compound 14, N—((S)-3-amino-1-(hydroxyamino)-3-methyl-1-oxobutan-2-yl)-4-((S)-5-hydroxyhexa-1,3-diynyl)benzamide]	1 to 8 (≈ 2.91 to 23.3 µM)	< 1	< 1	3.4			
C[C@@H](O)C#CC#Cc1ccc(C(=O)N[C@H](C(=O)NO)C(C)(C)N)cc1 [Compound 15, N—((S)-3-amino-1-(hydroxyamino)-3-methyl-1-oxobutan-2-yl)-4-((R)-5-hydroxyhexa-1,3-diynyl)benzamide]	< 1	< 1	< 1	2.3			
CNC(C)(C)[C@H](NC(=O)c1ccc(C#CC#C[C@H](C)O)cc1)C(=O)NO [Compound 16, N—((S)-1-(hydroxyamino)-3-methyl-3-(methylamino)-1-oxobutan-2-yl)-4-((S)-5-hydroxyhexa-1,3-diynyl)benzamide]	1 to 8 (≈ 2.8 to 22.4 µM)	< 1	< 1	3.6			
CC(C)(N)[C@H](NC(=O)c1ccc(C#CC#CC(O)CO)cc1)C(=O)NO (stereo partly drawn) [Compound 17, N—((S)-3-amino-1-(hydroxyamino)-3-methyl-1-oxobutan-2-yl)-4-(5,6-dihydroxyhexa-1,3-diynyl)benzamide]				1.5	1 to 8 (≈ 2.78 to 22.3 µM)	1 to 8 (≈ 2.78 to 22.3 µM)	8 to 16 (≈ 22.3 to 44.5 µM)
CC(C)(N)[C@H](NC(=O)c1ccc(C#CC#CC(CO)CO)cc1)C(=O)NO [Compound 18, (S)—N-(3-amino-1-(hydroxyamino)-3-methyl-1-oxobutan-2-yl)-4-(6-hydroxy-5-(hydroxymethyl)hexa-1,3-diynyl)benzamide]	8 to 16 (≈ 21.4 to 42.8 µM)	1 to 8 (≈ 2.68 to 21.4 µM)	1 to 8 (≈ 2.68 to 21.4 µM)	1.6			
CC(C)(N)[C@H](NC(=O)c1ccc(C#CC#CC(O)(CO)CCl)cc1)C(=O)NO (stereo partly drawn) [Compound 19, N—((S)-3-amino-1-(hydroxyamino)-3-methyl-1-oxobutan-2-yl)-4-(6-chloro-5-hydroxy-5-(hydroxymethyl)hexa-1,3-diynyl)benzamide]	1 to 8 (≈ 2.45 to 19.6 µM)	1 to 8 (≈ 2.45 to 19.6 µM)	< 1	1.0			
CC(C)(N)[C@H](NC(=O)c1ccc(C#CC#CCC(O)CO)cc1)C(=O)NO (stereo partly drawn) [Compound 21, N—((S)-3-amino-1-(hydroxyamino)-3-methyl-1-oxobutan-2-yl)-4-(6,7-dihydroxyhepta-1,3-diynyl)benzamide]	1 to 8 (≈ 2.68 to 21.4 µM)	1 to 8 (≈ 2.68 to 21.4 µM)	1 to 8 (≈ 2.68 to 21.4 µM)	1.9			
CNC(C)(C)[C@H](NC(=O)c1ccc(C#CC#CCC(O)CO)cc1)C(=O)NO (stereo partly drawn) [Compound 22, 4-(6,7-dihydroxyhepta-1,3-diynyl)-N—((S)-1-(hydroxyamino)-3-methyl-3-(methylamino)-1-oxobutan-2-yl)benzamide]	1 to 8 (≈ 2.58 to 20.6 µM)	< 1	< 1	1.6			
CC(C)(N)[C@H](NC(=O)c1ccc(C#CC#C[C@@H]2[C@@H](CO)[C@H]2CO)cc1)C(=O)NO [Compound 23A, N—((S)-3-amino-1-(hydroxyamino)-3-methyl-1-oxobutan-2-yl)-4-(((1S,2R,3S)-2,3-bis(hydroxymethyl)cyclopropyl)buta-1,3-diynyl)benzamide]	8 to 16 (≈ 20 to 40.1 µM)	1 to 8 (≈ 2.5 to 20 µM)	1 to 8 (≈ 2.5 to 20 µM)	2.3			
